Results on one molecule are retold here after paper PMC12210654, “Palazestrant, a novel oral Complete Estrogen Receptor Antagonist (CERAN) and Selective Estrogen Receptor Degrader (SERD), in patients with ER+/HER2− advanced or metastatic breast cancer: phase 1/2 study results” (Breast Cancer Research : BCR, 2025).

“Also recorded” adds a separate entry of the source.

Data set [1] is described as follows: Dose escalation (phase 1a): dose-limiting toxicity, MTD, RP2D. The format is in vivo. The conditions noted are these: once-daily oral doses of 30 to 300 mg/day. How it is done:
Phase 1 of the study comprised a dose-escalation phase (1a) to identify the MTD using a rolling 6 patient dose-escalation design with 7 dose levels. Two doses of palazestrant (60 mg/day and 120 mg/day) were selected for the dose-expansion phase (1b) to further characterize the safety, PK, and preliminary antitumor activity of treatment and to establish the RP2D. Phase 2 further explored the safety and antitumor activity of palazestrant at the RP2D (120 mg/day) in patients with measurable disease (primary cohort), nonmeasurable evaluable disease (exploratory cohort), and central nervous system (CNS) metastases (exploratory cohort). […]
All DLT analyses (phase 1a) were performed in patients enrolled in the study during cycle 1 and who either received 75% of the planned palazestrant doses or experienced a DLT during cycle 1. […] All safety analyses were performed and PFS assessed in patients who received at least 1 dose of palazestrant. Clinical response (CR or PR) was assessed in patients who received at least 1 cycle of palazestrant, had measurable disease at baseline, and had at least 1 postbaseline tumor assessment. CBR was assessed in patients who received at least 1 cycle of palazestrant, had at least 1 postbaseline tumor assessment, and started their first dose at least 24 weeks before data cutoff. […]

On the set-up of data set [2]: method as in PMID 38102750. The conditions noted are these: preclinical; cited from earlier work.
In another data set the test system is Ki67. Nature of the data set: Ki67 immunohistochemistry of tumor samples. In kind it is in vivo, human. The conditions noted are these: cycle 3 day 1 (N = 12), all dose levels; baseline 29.2% (N = 18); P = 0.041. How it is done: All immunohistochemistry analyses from tumor samples were performed at ICON Central Laboratories (Farmingdale, NY, USA) using the Ventana® BenchMark ULTRA™ automated staining instrument (Oro Valley, AZ, USA). Positive- and negative-control tissue and negative reagent controls were run for each marker, as well as low-ER controls for each run. Estrogen receptor levels were estimated as the number of positive tumor nuclei divided by the total number of tumor nuclei, expressed as a percentage for each receptor type. Evaluation of Ki67 was performed in accordance with Ki67 Working Group recommendations: 1) only nuclear staining was assessed as positive; 2) in cases of tumor heterogeneity (hot spots), 2 counts were performed and the average was reported; and 3) lymphocyte-rich areas were avoided when possible. Presence of activating ESR1 mutations (amino acid regions 370–381, 460–473, and 529–538) and their mutant allele fractions (MAFs) were determined in cell-free DNA (cfDNA), collected at baseline and at 8 weeks on treatment using the SafeSEQ Breast Cancer Panel (Sysmex Inostics, Baltimore, MD, USA).
In patients who underwent biomarker testing, samples collected on cycle 3 day 1 of treatment across all dose levels were compared to baseline samples to assess changes during treatment. […]

Data set [3] deals with ESR1 wild-type and mutated human breast cancers. The conditions noted are these: cited from earlier work.
Data set [4] can be described thus: Plasma pharmacokinetics, single and multiple dose, noncompartmental. The format is in vivo, human. The note with it: for AUC(0-t): steady-state geometric mean AUC0–24. Here is the method:
All DLT analyses (phase 1a) were performed in patients enrolled in the study during cycle 1 and who either received 75% of the planned palazestrant doses or experienced a DLT during cycle 1. All PK analyses were performed in patients who received at least 1 dose of palazestrant and had adequate postbaseline PK samples for characterization of PK parameters. All safety analyses were performed and PFS assessed in patients who received at least 1 dose of palazestrant. Clinical response (CR or PR) was assessed in patients who received at least 1 cycle of palazestrant, had measurable disease at baseline, and had at least 1 postbaseline tumor assessment. CBR was assessed in patients who received at least 1 cycle of palazestrant, had at least 1 postbaseline tumor assessment, and started their first dose at least 24 weeks before data cutoff. Patients who discontinued study treatment without radiographic progression within 24 weeks from the first dose were not included in the CBR analysis. PK parameters were estimated using conventional noncompartmental methods. For CBR, estimates were accompanied by 2-sided 95% confidence intervals (95% CIs). For PFS, Kaplan–Meier analyses were used to determine medians, event-free rates, and 95% CIs. For all other outcomes, categorical data were analyzed using frequencies and percentages, and continuous data were analyzed using means (standard deviation) or medians (range), as appropriate.
Fig. 3 Steady-State Plasma Concentration–Time Profiles for Palazestrant (30 to 300 mg QD; Phase 1a/1b/2 data). Palazestrant was administered once daily at the indicated dose. Plasma samples were collected on cycle 2, day 1, at the indicated timepoints following administration to determine plasma drug concentration. Data presented are arithmetic mean and standard deviation; the heavy dashed black line represents the target (efficacious) exposure based on estradiol-supplemented preclinical models (Cmin: 226 ng/mL). Cmin, minimum plasma concentration; QD, once daily

On to `CCCN1CC(Oc2ccc([C@@H]3c4[nH]c5ccccc5c4C[C@@H](C)N3CC(C)(C)F)cc2)C1` [palazestrant, Palazestrant], for which the “maximum tolerated dose (MTD)” value in data set [1] is listed as “not reached; also recorded: no MTD was identified”. Moreover, in data set [2], the “pharmacokinetics relative to fulvestrant and elacestrant” value is “superior pharmacokinetics”. Further, in the data set with Ki67, the “Ki67 levels on treatment” value was determined as 20.4%. The “tumor shrinkage compared with fulvestrant and tamoxifen” value in data set [3] (preclinical xenograft models, ESR1 wild-type and mutated) is recorded as “greater tumor shrinkage”. Moreover, the “preclinical antitumor activity relative to fulvestrant and elacestrant” value in data set [3] (regardless of ESR1 mutation status) is reported as “superior”. The “steady-state plasma concentrations versus predicted efficacy threshold (226 ng/mL)” value in data set [4] (doses of ≥ 60 mg/day (60 and 120 mg/day)) is “reached the predicted efficacy threshold; also recorded: above the predicted efficacy threshold”. Moreover, the AUC(0-t) (as a rule, exposure summed from dosing to a finite time, without extrapolation to infinity) in data set [4] (human, in vivo, 60 mg) stood at 4030 ng·h/mL. The molecule also returned an AUC(0-t) in data set [4] (human, in vivo, 120 mg) of 9210 ng·h/mL. Also, in data set [4] (human, in vivo, 120 mg, terminal half-life), the half-life (in general, how long it takes for the measured level to halve) is 8 days. Also, the bioavailability result in data set [4] (human, in vivo, po) is “readily bioavailable”. In data set [4] (in vivo), the distribution entry was “extensive tissue distribution”, the “dose proportionality of exposure” value was “dose-proportional exposure” and the elimination entry was “biphasic elimination”.
